Consider 14 compounds from ChEMBL document CHEMBL5724914, “Linking interpersonal differences in gut microbiota composition and drug biotransformation activity” (2024).

Data set [1] is described as follows: The drug is tested on WLS-370 corresponding to human gut metagenome with ENA study accession number: PRJEB37062 and ENA sample accession number: ERS12561793 for biotransformation under anaerobic condition. The drug concentrations were measured over 9 timepoints collected between 0 and 24 hours of incubation by liquid-chromatography-coupled mass spectrometry (LC–MS). The following applies: 2 µM.

The conditions of data set [2]: human gut metagenome, 24 h, 2 µM.
For data set [3] the following is noted: human gut metagenome, 24 h, 2 µM. This is another data set of the same source.
Data set [4] can be described thus: The drug is tested on WLS-082 corresponding to human gut metagenome with ENA study accession number: PRJEB37062 and ENA sample accession number: ERS12561751 for biotransformation under anaerobic condition. The drug concentrations were measured over 9 timepoints collected between 0 and 24 hours of incubation by liquid-chromatography-coupled mass spectrometry (LC–MS). The following applies: 2 µM.

For data set [5] the following is noted: human gut metagenome, 24 h, 2 µM. This is another data set of the same source.
The conditions of data set [6]: human gut metagenome, 24 h, 2 µM. This is another data set of the same source.
Data set [7] in a line: The drug is tested on WLS-090 corresponding to human gut metagenome with ENA study accession number: PRJEB37062 and ENA sample accession number: ERS12561753 for biotransformation under anaerobic condition. The drug concentrations were measured over 9 timepoints collected between 0 and 24 hours of incubation by liquid-chromatography-coupled mass spectrometry (LC–MS). The following applies: 2 µM.

The conditions of data set [8]: human gut metagenome, 24 h, 2 µM. This is another data set of the same source.
A short description of data set [9]: The drug is tested on WLS-098 corresponding to human gut metagenome with ENA study accession number: PRJEB37062 and ENA sample accession number: ERS12561754 for biotransformation under anaerobic condition. The drug concentrations were measured over 9 timepoints collected between 0 and 24 hours of incubation by liquid-chromatography-coupled mass spectrometry (LC–MS). To be noted: 2 µM.
Note: call rule not given here.

On to `O=C(O)CCC(=O)O.O=C(O[C@H]1CN2CCC1CC2)N1CCc2ccccc2[C@@H]1c1ccccc1` [SOLIFENACIN SUCCINATE], for which the “Bacterial Biotransformation” value in data set [1], in data set [2], in [3], in data set [4], in data set [5] and in data set [6] was “Compound metabolized” in each case. Moreover, the “Bacterial Biotransformation” value in data set [7] is “Compound metabolized”; in [8] it was “Compound NOT metabolized”; in data set [9], “Compound metabolized”.
Consider `COc1cc2nc(N3CCN(C(=O)C4CCCO4)CC3)nc(N)c2cc1OC` (stereo unspecified) [TERAZOSIN], for which the “Bacterial Biotransformation” value in data set [1] is reported as “Compound NOT metabolized”; in data set [2], “Compound metabolized”; in data set [3] it was “Compound metabolized”; in data set [4], “Compound metabolized”; in [5] it was “Compound metabolized”; in data set [6] it was “Compound metabolized”. The “Bacterial Biotransformation” value in data set [7] is recorded as “Compound metabolized”; in data set [8], “Compound NOT metabolized”; in data set [9], “Compound metabolized”.
On to `CC(C)[C@H]1CC[C@H](C(=O)N[C@H](Cc2ccccc2)C(=O)O)CC1` [NATEGLINIDE], for which the “Bacterial Biotransformation” value in data set [1], in data set [2], in [3], in [4], in data set [5] and in [6] was “Compound metabolized” each time. Also, the “Bacterial Biotransformation” value in data set [7], in data set [8] and in data set [9] was “Compound metabolized” each time.
For the compound `CCN(C)C(=O)Oc1cccc([C@H](C)N(C)C)c1.O=C(O)C(O)C(O)C(=O)O` [RIVASTIGMINE TARTRATE], the “Bacterial Biotransformation” value in data set [1], in data set [2], in [3], in data set [4], in [5] and in data set [6] was “Compound NOT metabolized” throughout. The “Bacterial Biotransformation” value in [7], in data set [8] and in data set [9] was “Compound NOT metabolized” each time.
As to `CC(C)C[C@H]1C(=O)N2CCC[C@H]2[C@]2(O)O[C@](NC(=O)[C@@H]3C=C4c5cccc6[nH]c(Br)c(c56)C[C@H]4N(C)C3)(C(C)C)C(=O)N12.CS(=O)(=O)O` [BROMOCRIPTINE MESYLATE], the “Bacterial Biotransformation” value is on record as “Compound metabolized” in [1]; “Compound metabolized” in [2]; “Compound NOT metabolized” in [3]; “Compound metabolized” in data set [4]; “Compound metabolized” in data set [5]; “Compound metabolized” in [6]. Moreover, the “Bacterial Biotransformation” value in data set [7], in data set [8] and in data set [9] was “Compound metabolized” in each case.
Regarding `Nc1nc(NC2CC2)c2ncn([C@H]3C=C[C@@H](CO)C3)c2n1.Nc1nc(NC2CC2)c2ncn([C@H]3C=C[C@@H](CO)C3)c2n1.O=S(=O)(O)O` [ABACAVIR SULFATE], the “Bacterial Biotransformation” value in data set [1] is reported as “Compound NOT metabolized”; in [2] it was “Compound metabolized”; in [3], “Compound metabolized”; in data set [4] it was “Compound NOT metabolized”; in [5], “Compound metabolized”; in data set [6], “Compound NOT metabolized”. Also, the results for the “Bacterial Biotransformation” value in data set [7], in [8] and in data set [9] were “Compound metabolized”, “Compound NOT metabolized” and “Compound metabolized”, respectively.
In the case of `CC(NC(C)(C)C)C(=O)c1cccc(Cl)c1` (stereo unspecified) [BUPROPION], the “Bacterial Biotransformation” value in data set [1] is listed as “Compound NOT metabolized”; in data set [2], “Compound NOT metabolized”; in data set [3], “Compound metabolized”; in data set [4], “Compound NOT metabolized”; in [5], “Compound NOT metabolized”; in data set [6], “Compound NOT metabolized”. Besides, the “Bacterial Biotransformation” value in data set [7], in data set [8] and in [9] was “Compound NOT metabolized” in each case.
In the case of `CC(C)(C)NC[C@H](O)COc1nsnc1N1CCOCC1.O=C(O)/C=C\C(=O)O` [TIMOLOL MALEATE], the “Bacterial Biotransformation” value in data set [1], in data set [2], in data set [3], in data set [4], in data set [5] and in data set [6] was “Compound NOT metabolized” throughout. Also, the “Bacterial Biotransformation” value in data set [7], in [8] and in data set [9] was “Compound NOT metabolized” in each case.
As to `CCOc1ccc2nc(S(N)(=O)=O)sc2c1` [ETHOXZOLAMIDE], the “Bacterial Biotransformation” value in data set [1] is given as “Compound NOT metabolized”; in data set [2], “Compound NOT metabolized”; in data set [3] it was “Compound metabolized”; in data set [4], “Compound NOT metabolized”; in [5], “Compound NOT metabolized”; in data set [6] it was “Compound NOT metabolized”. In addition, the “Bacterial Biotransformation” value in data set [7] was “Compound metabolized”; in data set [8] it was “Compound NOT metabolized”; in data set [9], “Compound metabolized”.
On to `CCOc1ccccc1OCCN[C@H](C)Cc1ccc(OC)c(S(N)(=O)=O)c1.Cl` [TAMSULOSIN HYDROCHLORIDE], for which the “Bacterial Biotransformation” value in data set [1] is listed as “Compound NOT metabolized”; in [2] it was “Compound metabolized”; in data set [3], “Compound metabolized”; in data set [4], “Compound NOT metabolized”; in data set [5] it was “Compound NOT metabolized”; in data set [6], “Compound NOT metabolized”. Further, the “Bacterial Biotransformation” value in data set [7] was “Compound metabolized”; in [8], “Compound NOT metabolized”; in data set [9], “Compound metabolized”.
`CCOC(=O)C1=C[C@]2(CC)CCCN3CCc4c(n1c1ccccc41)[C@@H]32` [VINPOCETINE]: the “Bacterial Biotransformation” value in data set [1], in [2], in [3], in data set [4], in data set [5] and in data set [6] was “Compound metabolized” throughout. The “Bacterial Biotransformation” value in data set [7], in [8] and in [9] was “Compound metabolized” throughout.
Turning to `O=P1(N(CCCl)CCCl)NCCCO1` (stereo unspecified) [CYCLOPHOSPHAMIDE ANHYDROUS], the “Bacterial Biotransformation” value is given as “Compound NOT metabolized” in [1]; “Compound metabolized” in data set [2]; “Compound metabolized” in [3]; “Compound metabolized” in data set [4]; “Compound NOT metabolized” in [5]; “Compound NOT metabolized” in data set [6]. For the same compound, the “Bacterial Biotransformation” value in data set [7] is on record as “Compound metabolized”; in [8] it was “Compound NOT metabolized”; in [9], “Compound metabolized”.
`CN1CCC[C@@H]1CCO[C@](C)(c1ccccc1)c1ccc(Cl)cc1.O=C(O)/C=C/C(=O)O` [CLEMASTINE FUMARATE]: the “Bacterial Biotransformation” value in data set [1] is “Compound metabolized”; in data set [2], “Compound metabolized”; in data set [3] it was “Compound metabolized”; in [4], “Compound NOT metabolized”; in data set [5], “Compound NOT metabolized”; in [6], “Compound metabolized”. Moreover, the results for the “Bacterial Biotransformation” value in data set [7], in data set [8] and in data set [9] were “Compound NOT metabolized”, “Compound NOT metabolized” and “Compound metabolized”, respectively.
On to `CC(C)(C)NCC(O)c1cc(Cl)c(N)c(Cl)c1` (stereo unspecified) [CLENBUTEROL], for which the “Bacterial Biotransformation” value in data set [1], in [2], in data set [3], in data set [4], in data set [5] and in data set [6] was “Compound NOT metabolized” throughout. Moreover, the “Bacterial Biotransformation” value in data set [7], in data set [8] and in data set [9] was “Compound NOT metabolized” each time.
